One block for each molecule: values may come before it.
Key:
[1] = Oral PK of nanomilled formulations in adult SD rats; type: in vivo, rat; settings: rat, in vivo, po, 100 mg/kg
Description: The test item, the stabilizer (HPC-SSL) and the surfactant (SDS) were accurately weighed and transferred in a 15-mL amber glass jar charged with 6 mL of yttrium-stabilized zirconia beads (0.8 mm). The suspension was brought to final weight with water in order to achieve the desired final concentration. The formulation was mixed using a vortex for at least 1 minute and then homogenized using a roller mill (Unitized Jar Mill, Model 755 RMV from U.S. Stoneware (purchased from Fisher Scientific Canada cat #08-381-1) at 50 rpm for 48 hours.
For the animal study, the suspensions prepared at 50 mg/mL were diluted to 10 mg/mL using a blank vehicle prepared using the same proportions of excipients as those indicated in Table I. By diluting the concentrated suspension of AVR-84 a clear solution was obtained whereas for AVR-48 the solution was a homogeneous cloudy solution.
Animals and dosing: The male SD rats (N=3) were obtained from Charles River. Each animal was weighed before the administration of the test item. […] At the specified time points, t=15′, 30′, 1 h, 2 h, 3 h, 4 h, 6 h, 8 h and 24 h (N=3), blood (100 μL) was collected via the saphenous vein using MINIVETTE® POCT K3-EDTA. The blood samples were centrifuged for 10 min at 965 g and 4° C. within 30 min of collection, to obtain plasma. Plasma samples were kept frozen at −80° C. The plasma samples were thawed on ice and kept on ice during the sample preparation. Thirty μL of plasma samples were mixed with 75 μL of precipitation solution (80% acetonitrile and 20% methanol containing IS) was added. Samples were mixed and centrifuged at 3500 rpm for 10 min at 4° C. Forty μL of the supernatant was transferred to a 96 well plate, and 80 μL of water+0.1% formic acid was added and analyzed using the in house developed HPLC method.

[2] = test system: hyperoxia-exposed BPD mouse model; assay: Hyperoxia-exposed BPD mouse model: dose response and lung morphometry; type: in vivo; settings: mouse, in vivo
Description: Simultaneously, the AVR-48 nanosuspension formulation IN (0.11 mg/kg) was tested as well as in solution form, IP and IV (10 mg/kg) (through the facial vein), and confirmed that all routes of administration gave similar outcomes. […] From the PK study, as described above, the bioavailability of the drug in the plasma and lungs were similar when delivered as solution formulation via either IN or IP routes. As the goal of this study is to develop AVR-48 as a commercially viable and applicable therapeutic candidate for BPD, the IP route was selected as the preferred mode of drug delivery in neonatal murine pups, with the rationale that it would be easier to deliver the drug systemically to preterm babies IV, rather than the IN route. The results and outcome of all the routes of administration have been presented in a cumulative manner, as the endpoint was similar for all routes of administration. […] FIG. 1 is a dose response study of AVR-48 at different doses of […], given IP. ****p<0.0001. N=5-7 mice per group. 10 mg/kg (IP) was selected as the most efficacious dose. IP: intraperitoneal; Hyp: hyperoxia; BPD: Bronchopulmonary dysplasia.
Formulation of AVR-48 for efficacy and toxicokinetic studies. For the mouse dose response efficacy studies, AVR-48 was reconstituted in 0.9% sterile normal saline to give a final dose concentration of […] as a colorless solution, and injected IP (30 μl) on P2 and P4. The PLGA encapsulated AVR-48 or the GFP-tagged analog was resuspended in deionized sterile water to make a nanosuspension with final dose concentration of 0.025, 0.05 and 0.11 mg/kg/drop. The surfactant Curosurf® (Cheisi Parma, Italy), available commercially, was delivered IN at a volume of 3 μl per nostril, on P2 and P4. For the toxicokinetic study of AVR-48 in rat pups, a formulation of 10% DMSO, 20% tetraglycol, 20% PEG 400, and 50% sterile water was made fresh before administration (Shah, Das et al. 2021).
(§1) For the hyperoxia experiment, newborn pups were exposed to 100% hyperoxia (P0), along with their mothers, in cages in an airtight Plexiglas chamber (OxyCycler; Biospherix, Redfield, NY, USA) as described previously by the present inventors (Syed, Das et al., 2017, Leary, Das et al. 2019, Das, Acharya et al. 2020, relevant portions incorporated herein) for 4 consecutive days (till P4) and removed to RA on P5 to be recovered till P14, so as to emulate the human BPD condition. All pups were sacrificed on P14 for further experimental analyses. The pups without any hyperoxia exposure served as the corresponding RA (normoxia) controls.
Histology, immunohistochemistry and immunofluorescence. Both the RA control and BPD mice were anesthetized (using an overdose of a cocktail of xylazine-ketamine) and lung and heart tissues were harvested after perfusion and fixed overnight in 4% paraformaldehyde. Fixed tissues were then washed in fresh PBS, dehydrated using 70% ethanol, cleared, and embedded in paraffin to be sectioned and stained with hematoxylin and eosin (H&E) for lung morphometry or immunohistochemistry/immunofluorescence as previously described (Leary, Das et al. 2019, Das, Achaiya et al. 2020, Das, Curstedt et al. 2020). Immunofluorescence staining was done for Ki67 (Abcam, 1:10) and Von Wilebrand Factor (vWF-DAKO, 1:100) on lung paraffin sections following the protocol as described earlier (Leary, Das et al. 2019) while TUNEL staining was done following the manufacturer's instructions (Roche).
Morphometry and quantification. To study chord length, septal thickness and radial alveolar count in the lungs, RV, LV and IVS thickness, 5 μm-thick left-lobe lung and heart paraffin-embedded sections were stained with H&E. Multiple randomly chosen areas (at least 10 areas) from each section were photographed using 100× total magnification. […]

[3] = target: T1, TLR4 (Homo sapiens, UniProt O00206); assay: TLR4 assay: unbound TLR4 ELISA in PMA-stimulated THP-1 cell lysates; type: binding; settings: THP-1 human monocyte cells
T1 construct: Cell lysates were prepared, total protein was quantified and treated with different concentrations; host or cells: THP-1 cells stimulated with PMA for 48 h, then lysed
Description: FIG. 26A, TLR4 assay: 1×10^5 THP cells (ATCC) were seeded in 24 well plates and stimulated with phorbol myristyl actetate (PMA, 200 ng/mL) for 48 h. Cell lysates were prepared, total protein was quantified and treated with different concentrations (4, 16, 62.5 and 250 μM) of the AVR-48 for 2 h. ELISA was performed after to assess unbound TLR4 following manufacturer's instruction (Raybiotech). TLR4 IC50 of the AVR-48 was calculated using GraphPad Prism7.04.

[4] = test system: hyperoxia-exposed BPD mouse model; assay: BPD mouse model: bronchoalveolar lavage fluid (BALF) analysis; type: in vivo; settings: 10 mg/kg; vs BPD group
Excerpt: as §1
Bronchoalveolar lavage fluid (BALF) Analysis. Pups were sacrificed on PN14, and the trachea was cannulated with a small-caliber needle by instilling PBS endotracheally at […] pressure for 15 minutes. Two volumes of 300 μL of cold 1×PBS were instilled, gently aspirated, and pooled. Samples were centrifuged at 1000×g for 10 minutes at 4° C. The supernatant was collected, and total protein was quantified using the Pierce™ BCA Protein Assay Kit (Fisher Scientific Co, Houston, TX). The total cell count was done using the TC20 cell counter (BioRad, Hercules, CA). Similar method was followed for analyzing the protein concentration in BAL fluid collected from preterm lambs.

[5] = test system: human cord blood monocytes (CBMC); assay: Cytokines in human cord blood monocytes (CBMC); type: cell-based; settings: compound alone (10 μM) or with LPS, compared with only LPS
Excerpt: IL-12p40, is a marker for the innate immune response to infection and is down regulated in CBMC.

T1 sequence (O00206 24-839): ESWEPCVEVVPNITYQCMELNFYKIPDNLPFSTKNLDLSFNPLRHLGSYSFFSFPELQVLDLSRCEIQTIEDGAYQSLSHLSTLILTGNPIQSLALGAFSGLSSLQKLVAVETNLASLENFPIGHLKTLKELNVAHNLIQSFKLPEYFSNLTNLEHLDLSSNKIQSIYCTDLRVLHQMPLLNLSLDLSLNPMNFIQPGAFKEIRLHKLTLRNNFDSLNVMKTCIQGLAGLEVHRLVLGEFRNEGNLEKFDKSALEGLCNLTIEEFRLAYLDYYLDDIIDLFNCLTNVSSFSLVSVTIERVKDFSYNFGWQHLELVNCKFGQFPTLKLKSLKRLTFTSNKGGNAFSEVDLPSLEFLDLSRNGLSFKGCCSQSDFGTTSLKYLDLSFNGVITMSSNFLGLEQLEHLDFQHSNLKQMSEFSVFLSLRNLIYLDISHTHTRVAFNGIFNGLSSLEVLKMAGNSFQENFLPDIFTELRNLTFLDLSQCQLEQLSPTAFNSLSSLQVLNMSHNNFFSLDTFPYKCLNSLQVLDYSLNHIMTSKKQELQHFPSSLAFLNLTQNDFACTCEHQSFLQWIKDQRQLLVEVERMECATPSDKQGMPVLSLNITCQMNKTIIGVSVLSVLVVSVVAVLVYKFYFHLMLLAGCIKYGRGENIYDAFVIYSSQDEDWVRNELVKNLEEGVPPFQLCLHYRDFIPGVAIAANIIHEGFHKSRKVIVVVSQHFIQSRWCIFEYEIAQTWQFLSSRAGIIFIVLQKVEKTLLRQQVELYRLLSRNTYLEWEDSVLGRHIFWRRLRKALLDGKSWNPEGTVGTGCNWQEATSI

Cmax [1]: 4.56 µM | Tmax [1]: 0.5 ± 0.0 h | half-life (T v2) [1]: 1.66 ± 1.0 h | plasma concentration profile [1]: linear decline in drug concentration
SMILES: CC(=O)N[C@@H]1C(Oc2ccc3nonc3c2)OC(CO)C(O)C1O (stereo partly shown) [AVR-84]

binding to TLR4 [3]: bind TLR4
SMILES: CC(=O)NC1[C@H](Oc2ccc(C(=O)N[C@@H]3OC(CO)[C@@H](O)[C@H](O)C3NC(C)=O)cc2)OC(CO)[C@@H](O)[C@@H]1O (stereo partly shown) [Compound 3]
inflammatory cytokines in neonatal mouse pups with BPD [2]: decrease inflammatory cytokines

binding to TLR4 [3]: bind TLR4
SMILES: CC(=O)N[C@@H]1C(Oc2ccc(B3OC(C)(C)C(C)(C)O3)cc2)OC(CO)C(O)C1O (stereo partly shown) [Compound 32]
inflammatory cytokines in neonatal mouse pups with BPD [2]: decrease inflammatory cytokines

SMILES: CCOC(=O)C1=CCCC[C@H]1S(=O)(=O)Nc1ccc(F)cc1Cl [TAK 242, reference compound]
total inflammatory cells in BALF [4]: did not affect | IL-12p40 response [5]: decrease the LPS induced increase in IL-12p40 level

— patent publication US12440471B2, “Compositions and methods for the treatment of bronchopulmonary dysplasia (BPD) and BPD-associated pulmonary hypertension” (AyuVis Research, Inc., priority 2021, dated 2025)
